From patent US9000015B2, “Compounds for the treatment of addiction” (Gilead Sciences, Inc., priority 2011, dated 2015)

Experiments:
HMAO-B = HMAO-B (Homo sapiens (Human), UniProt P27338); experiment: MAO-B assay (luminogenic MAO substrate); assay type: biochemical; settings: microsome MAO-B, 16 uM substrate
Experimental: (§1) MAO assays included luminogenic MAO substrate, reaction buffers, Luciferin Detection and the reconstitution buffer with eserase. Standard MAO reaction mixtures included microsome contained MAO-A (2 ug) or MAO-B (10 ug), 160 uM substrate for MAO-A or 16 uM substrate for MAO-B, MAO-A buffer (100 mM Hepes buffer, pH 7.5, 5% glycerol) or MAO-B buffer (100 mM Hepes, pH 7.5, 5% glycerol, 10% dimethyl sulfoxide) in a final volume of 30 ul. After 20 minutes of pre-incubation of the enzyme with compounds, the reaction was initiated by adding enzyme substrate and the reaction was allowed to proceed for 60 minutes. Reconstituted Luciferin Detection Reagent (30 ul) was then added is added to simultaneously stop the MAO reaction and convert the methyl ester derivative to luciferin and produce light. The amount of light produced is directly proportional to the activity of MAO. The mixtures were further incubated for 20 minutes and activity of the enzyme was determined using Perkin-Elmer Envision Reader.
(§2) Note: […] refers to the concentration of a compound that inhibits a reaction by 50%. In the case of competitive inhibition, IC50=2Ki when the substrate is present at the Km concentration, as per the relationship: Ki=IC50/[1+(substrate concentration/Km)].

HMAO-A = HMAO-A (Homo sapiens (Human), UniProt P21397); experiment: MAO-A assay (luminogenic MAO substrate); assay type: biochemical; settings: microsome MAO-A, 160 uM substrate
HMAO-A, sequence (P21397 whole entry): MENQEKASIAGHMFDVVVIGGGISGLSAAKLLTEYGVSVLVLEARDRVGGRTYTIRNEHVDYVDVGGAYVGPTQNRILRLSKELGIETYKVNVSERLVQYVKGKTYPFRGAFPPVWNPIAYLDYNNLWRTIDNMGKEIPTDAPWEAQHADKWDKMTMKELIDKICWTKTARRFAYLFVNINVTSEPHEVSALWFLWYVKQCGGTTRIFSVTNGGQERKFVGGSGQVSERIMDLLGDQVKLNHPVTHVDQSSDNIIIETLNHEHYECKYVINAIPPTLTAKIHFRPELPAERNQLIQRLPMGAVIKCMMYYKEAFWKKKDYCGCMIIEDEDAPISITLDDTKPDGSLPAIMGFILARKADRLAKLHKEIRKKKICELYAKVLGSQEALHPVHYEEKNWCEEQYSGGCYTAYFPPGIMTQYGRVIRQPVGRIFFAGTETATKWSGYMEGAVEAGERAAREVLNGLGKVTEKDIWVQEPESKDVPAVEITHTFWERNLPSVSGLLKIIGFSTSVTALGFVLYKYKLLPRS
Experimental: as §1, §2

recombinant human ALDH2 = recombinant human ALDH2 (Homo sapiens (Human), UniProt P05091); experiment: ALDH2 assay (NADH formation); assay type: biochemical; settings: 60 min pre-incubation, 150 uM formaldehyde, 2.5 mM NAD+; read-out: IC50 HALDH2
recombinant human ALDH2, sequence (P05091 18-517): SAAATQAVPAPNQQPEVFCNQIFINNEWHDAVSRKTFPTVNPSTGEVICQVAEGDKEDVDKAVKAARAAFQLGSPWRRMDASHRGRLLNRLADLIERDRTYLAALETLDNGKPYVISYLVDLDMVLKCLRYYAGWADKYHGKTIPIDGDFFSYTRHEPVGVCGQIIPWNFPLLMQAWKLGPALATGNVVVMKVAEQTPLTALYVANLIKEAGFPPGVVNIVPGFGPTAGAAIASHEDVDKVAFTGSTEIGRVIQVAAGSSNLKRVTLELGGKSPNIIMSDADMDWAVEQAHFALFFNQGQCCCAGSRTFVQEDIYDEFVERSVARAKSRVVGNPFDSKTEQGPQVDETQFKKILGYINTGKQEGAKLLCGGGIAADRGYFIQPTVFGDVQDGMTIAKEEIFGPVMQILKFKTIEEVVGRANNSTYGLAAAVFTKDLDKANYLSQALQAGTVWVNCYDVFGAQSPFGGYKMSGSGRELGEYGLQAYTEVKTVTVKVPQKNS
Experimental: Standard ALDH2 reaction mixtures contained 150 uM formaldehyde, 2.5 mM NAD^+, 10 mM MgCl2 and 10 nM recombinant human ALDH2 in 50 mM Hepes buffer, pH 7.4, 0.01% Tween 20 in a final volume of 50 ul using 384-well plates. After 60 min of pre-incubation of compound with ALDH2 and formaldehyde, the reaction was started by adding NAD+ and the reaction mixture was allowed to proceed for 90 minutes. Activity of the enzyme was determined by monitoring NADH formation using Perkin-Elmer Envision Reader with excitation and emission wavelengths set at 340 and 460 nm, respectively.
as §2

Male SD rats = experiment: Rat nicotine self administration, acute treatment; assay type: in vivo; settings: 1 hr before session
Experimental: Male SD rats were trained to self administer i.v. nicotine (0.03 mg/kg/inj) daily (Monday to Friday) in standard operant chambers with retractable levers (MED Associates, Inc) as previously published (Levin et al., 2003; Levin et al., 2007). During the daily 45 min session, rats received 0.05 ml infusion of 0.03 mg/kg/infusion of nicotine every time the active lever was pressed. A cue light and tone turned on for 0.5 sec together with the activation of a pump that delivered the nicotine solution. Daily sessions were run for at least 10 days before the initiation of drug testing. Solutions of compounds of Example 2 and Example 5 were prepared fresh daily in Formulation 2B: 25% PEG400/5% Vit E TPGS/1% SLS/69% water with 0.5% Methocel) for oral dosing. Compound of Example 2 doses were administered in a counterbalanced design for testing 1 hr before each nicotine session. Every rat received all drug doses and vehicle in a randomly assigned order. The oral drug administrations were made twice per week.
Compound of Example 5 was tested in a study using 4 independent groups. Each group received either oral vehicle or 1 of the 3 doses of compound of Example 5 (5, 10 or 30 mg-eq/kg). […] The 5 mg/kg dose was ineffective.

[1] = test system: male Sprague Dawley (SD) rats; experiment: Rat cocaine cue reinstatement; assay type: in vivo
Experimental: Training of male Sprague Dawley (SD) rats had 3 separate stages. First, during self administration, animals were trained to lever press for cocaine with presentation of concomitant cues associated with drug delivery. Rats that reached criteria for addiction were included in the study. Afterward, during cue extinction, cocaine-cue dependent behavior was extinguished. Lastly, during cocaine cue reinstatement, the effect of compounds was tested on lever presses upon cue presentation (FIG. 2).
Rats were trained to self administer i.v. cocaine (0.35 mg/kg/injection) daily (Monday to Friday) in standard operant chambers with retractable levers (Coulbourn Instruments, PA). During the daily 2 hr session, rats received a 0.05 ml infusion of 0.35 mg/kg cocaine every time the active lever was pressed. A cue light and tone turned on for 2 sec together with activation of a pump that delivered the cocaine solution. Rats were required to maintain an infusion rate of ≧20+ per day for at least 10 days before being moved to extinction training.
During extinction sessions lever presses no longer produced cocaine infusion and cue light/tone presentation was absent. Rats received a maximum of 15 extinction sessions.
On the next day after reaching extinction criteria, rats were treated orally with vehicle (Formulation 2B: 25% PEG400/5% Vit E TPGS/1% SLS/69% water with 0.5% Methocel) or drug (compound of Example 2 or compound of Example 5) before the cue reinstatement session. Cue reinstatement began with a tone and cue light. This 2 hr session was identical to the self-administration session (cue light and tone present upon active lever press) except that no cocaine was delivered. The number of active lever presses was compared to extinction lever responding. This is considered a measure of reinstatement. The next day, rats were returned to extinction sessions for at least 2 or 3 more sessions. Rats then received a second and last reinstatement session with an opposite treatment to the one received on the first reinstatement session (vehicle or drug treatment). […] The light/tone presentation triggers this response and it is interpreted as a measure of reinstatement even though cocaine is not available.

HMAO-B, sequence (P27338 whole entry): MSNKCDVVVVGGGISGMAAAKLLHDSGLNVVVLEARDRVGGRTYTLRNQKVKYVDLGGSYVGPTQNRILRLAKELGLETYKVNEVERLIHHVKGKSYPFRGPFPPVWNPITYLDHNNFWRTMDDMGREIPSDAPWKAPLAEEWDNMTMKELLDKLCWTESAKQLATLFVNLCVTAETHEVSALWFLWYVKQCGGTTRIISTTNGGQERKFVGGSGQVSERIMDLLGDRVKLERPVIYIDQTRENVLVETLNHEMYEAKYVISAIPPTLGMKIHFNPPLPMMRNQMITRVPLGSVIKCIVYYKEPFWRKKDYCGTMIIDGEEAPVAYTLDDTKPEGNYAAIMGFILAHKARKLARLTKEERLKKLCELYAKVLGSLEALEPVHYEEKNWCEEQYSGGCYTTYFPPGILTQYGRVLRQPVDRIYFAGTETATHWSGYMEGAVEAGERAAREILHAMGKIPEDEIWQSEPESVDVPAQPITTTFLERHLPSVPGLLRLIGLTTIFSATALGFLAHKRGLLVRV

Row | Compound | IC50 (HMAO-B) [µM] | IC50 (HMAO-A) [µM] | IC50 (recombinant human ALDH2) [µM] | further results
1 | Cc1cccc(C)c1C(=O)NCc1ccc(-c2cc[nH]c(=O)c2)cc1 [Compound 5, 2,6-dimethyl-N-(4-(2-oxo-1,2-dihydropyridin-4-yl)benzyl)benzamide] | > 130 | > 130 | 0.166 | 
2 | O=C(NCc1ccc(-c2cc[nH]c(=O)c2)cc1)c1c(F)ccc(F)c1Cl [Compound 7, 2-chloro-3,6-difluoro-N-(4-(2-oxo-1,2-dihydropyridin-4-yl)benzyl)benzamide] | > 130 | > 130 | 0.464 | 
3 | O=C(NCc1ccc(-c2cc[nH]c(=O)c2)cc1)c1c(F)cccc1F [Compound 10, 2,6-difluoro-N-(4-(2-oxo-1,2-dihydropyridin-4-yl)benzyl)benzamide] | > 130 | > 130 | 0.89 | 
4 | COCCOc1cc(Cl)c(C(=O)NCc2ccc(-c3cc[nH]c(=O)c3)cc2)c(Cl)c1 [Compound 1, 2,6-dichloro-4-(2-methoxyethoxy)-N-(4-(2-oxo-1,2-dihydropyridin-4-yl)benzyl)benzamide] | > 130 | > 130 | 0.063 | 
5 | Cn1ccc(-c2ccc(CNC(=O)c3c(Cl)cccc3Cl)cc2)cc1=O [Compound 9, 2,6-dichloro-N-(4-(1-methyl-2-oxo-1,2-dihydropyridin-4-yl)benzyl)benzamide] | > 130 | > 130 | 2.09 | 
6 | O=C(NCc1ccc(-c2cc[nH]c(=O)c2)cc1)c1c(Cl)cccc1Cl [Compound 2, 2,6-dichloro-N-[4-(2-oxo-1,2-dihydro-pyridin-4-yl)-benzyl]-benzamide] | > 130 | > 130 | 0.102 | effect on number of nicotine infusions compared to vehicle (Male SD rats; 1 mg/kg oral): without effect; effect on number of nicotine infusions compared to vehicle (Male SD rats; 5 mg/kg oral): without effect; inhibition of number of nicotine infusions compared to vehicle (Male SD rats; 10 mg/kg oral): 26%; inhibition of number of nicotine infusions compared to vehicle (Male SD rats; 30 mg/kg oral): 28%; inhibition of number of nicotine infusions compared to vehicle (Male SD rats; 60 mg/kg oral): 31%; reduction of cocaine cue-induced reinstatement (lever presses) compared to vehicle ([1]; 5 mg/kg oral): 69%; reduction of cocaine cue-induced reinstatement (lever presses) compared to vehicle ([1]; 10 mg/kg oral): 72%; reduction of cocaine cue-induced reinstatement (lever presses) compared to vehicle ([1]; 30 mg/kg oral): 86%

More lines, main results first:

Row | IC50 (HMAO-B) [µM] | IC50 (HMAO-A) [µM] | IC50 (recombinant human ALDH2) [µM] | Compound | further results
7 | > 130 | > 130 | 0.023 | Cc1cccc(Cl)c1C(=O)NCc1ccc(-c2cc[nH]c(=O)c2)cc1 [Compound 4, 2-chloro-6-methyl-N-(4-(2-oxo-1,2-dihydropyridin-4-yl)benzyl)benzamide] | 
8 | > 130 | > 130 | 0.48 | Cc1cc(CNC(=O)c2c(Cl)cccc2Cl)ccc1-c1cc[nH]c(=O)c1 [Compound 8, 2,6-dichloro-N-(3-methyl-4-(2-oxo-1,2-dihydropyridin-4-yl)benzyl)benzamide] | 
9 | > 130 | > 130 | 0.025 | O=C(NCc1ccc(-c2cc(=O)[nH]cc2F)cc1)c1c(Cl)cccc1Cl [Compound 13, 2,6-dichloro-N-(4-(5-fluoro-2-oxo-1,2-dihydropyridin-4-yl)benzyl)benzamide] | 
10 | > 130 | > 130 | 0.215 | O=C(NCc1ccc(-c2cc[nH]c(=O)c2)cc1)c1cccc(F)c1Cl [Compound 3, 2-chloro-3-fluoro-N-(4-(2-oxo-1,2-dihydropyridin-4-yl)benzyl)benzamide] | 
11 | > 130 | > 130 | 0.379 | O=C(NCc1ccc(-c2cc[nH]c(=O)c2)cc1)c1c(F)cccc1Cl [Compound 11, 2-chloro-6-fluoro-N-(4-(2-oxo-1,2-dihydropyridin-4-yl)benzyl)benzamide] | 
12 | > 130 | > 130 | 1.11 | Cc1cc(-c2ccc(CNC(=O)c3c(Cl)cccc3Cl)cc2)cc(=O)[nH]1 [Compound 6, 2,6-dichloro-N-[4-(6-methyl-2-oxo-1,2-dihydro-pyridin-4-yl)-benzyl]-benzamide] | 
13 | > 130 | > 130 | 0.304 | O=C(NCc1ccc(-c2cc[nH]c(=O)c2)cc1F)c1c(Cl)cccc1Cl [Compound 12, 2,6-dichloro-N-(2-fluoro-4-(2-oxo-1,2-dihydropyridin-4-yl)benzyl)benzamide] | 
